This passage reports TGI results from PubChem BioAssay (NCI).

Some test systems named below: SR leukemia; RXF 393 renal; NCI-H226 lung; OVCAR-3 ovarian; HT29 colon; UACC-257 melanoma; KM12 colon; HCC-2998 colon; BT-549 breast; COLO 205 colon; LOX IMVI melanoma.
Holding throughout (experiment): growth of human tumour cells (NCI), 48 h

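Each compound was tested at five concentrations against cells in 96-well plates for 48 hours. TGI: total growth inhibition.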 Bounds are passed on as bounds.

Regarding `CC(C)C1CC[C@H](C)C[C@@H]1OC(=O)C(C(=O)O[C@H]1C[C@@H](C)CCC1C(C)C)C(O)[C@@H]1OC(C)(C)O[C@H]1C1COC(C)(C)O1` (some centres not stated), the TGI with SR leukemia worked out at 34.9 µM; with RXF 393 renal it was 28.9 µM; in the experiment on NCI-H226 lung, 41.2 µM; in the experiment with OVCAR-3 ovarian it was 36.2 µM; with HT29 colon, 32.2 µM; in the experiment on UACC-257 melanoma it was 78.2 µM. For the same compound, the TGI with KM12 colon came out at 31.6 µM; with HCC-2998 colon it was 26.7 µM; with BT-549 breast it was 34.2 µM; in the experiment with COLO 205 colon, 28.2 µM; with LOX IMVI melanoma it was 35.5 µM.

Regarding `Oc1ccc(O)c(CNc2ccccc2)c1`, the TGI in the experiment with SR leukemia was 75.2 µM; in the experiment with RXF 393 renal it was 19.5 µM; with NCI-H226 lung, 78.4 µM; in the experiment on OVCAR-3 ovarian it was 19.3 µM; in the experiment on HT29 colon, above 100 µM; with UACC-257 melanoma, 39.4 µM. Also, the TGI in the experiment with KM12 colon was 42.1 µM; in the experiment with HCC-2998 colon, 67.7 µM; in the experiment on BT-549 breast, 24.3 µM; in the experiment on COLO 205 colon, 37.4 µM; with LOX IMVI melanoma, 28.1 µM.
